Test results reported in patent publication US12044651B2, “Sensor device and methods” (SCENTIAN BIO LIMITED, priority 2016, dated 2024).

Experiments:
Type in all cases: binding
Or22a [1] = biological target: T1, Or22a (Drosophila melanogaster, UniProt P81909); test: EIS sensor, Or22a nanodiscs on gold electrode (Example 4)
T1 sequence (P81909 1-397): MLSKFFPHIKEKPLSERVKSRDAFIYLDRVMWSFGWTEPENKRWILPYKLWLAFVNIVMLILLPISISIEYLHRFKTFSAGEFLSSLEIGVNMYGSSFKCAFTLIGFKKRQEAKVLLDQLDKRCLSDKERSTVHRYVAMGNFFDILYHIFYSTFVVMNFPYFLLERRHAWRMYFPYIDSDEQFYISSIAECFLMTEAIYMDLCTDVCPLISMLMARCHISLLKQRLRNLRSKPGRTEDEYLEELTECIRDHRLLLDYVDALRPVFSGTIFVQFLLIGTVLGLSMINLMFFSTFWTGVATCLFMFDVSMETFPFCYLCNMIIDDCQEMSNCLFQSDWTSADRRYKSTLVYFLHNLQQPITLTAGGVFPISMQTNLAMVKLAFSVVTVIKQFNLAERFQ

OR35a [2] = biological target: T2, OR35a (Drosophila melanogaster, UniProt Q9V3Q2); test: EIS sensor, Or35a nanodiscs on gold electrode (Example 4)
T2 sequence (Q9V3Q2 1-409): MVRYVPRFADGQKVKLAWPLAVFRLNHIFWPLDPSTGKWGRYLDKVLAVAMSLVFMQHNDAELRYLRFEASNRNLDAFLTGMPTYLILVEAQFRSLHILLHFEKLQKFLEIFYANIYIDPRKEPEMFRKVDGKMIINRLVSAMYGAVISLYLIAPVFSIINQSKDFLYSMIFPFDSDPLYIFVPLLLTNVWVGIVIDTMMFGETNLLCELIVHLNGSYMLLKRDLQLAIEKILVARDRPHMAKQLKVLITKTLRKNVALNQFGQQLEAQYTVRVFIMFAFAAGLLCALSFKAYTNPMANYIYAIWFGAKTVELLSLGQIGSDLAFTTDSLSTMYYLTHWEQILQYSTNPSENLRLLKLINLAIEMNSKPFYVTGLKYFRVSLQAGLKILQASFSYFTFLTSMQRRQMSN

OR35a [3] = biological target: T2, OR35a; test: CNT-FET sensor, OR35a nanodiscs via his-tag/Ni-NTA (Example 2); conditions: for real time source-drain current response: OR35a nanodiscs 1:10, E-2-hexenal at 64 pM, methyl hexanoate 70 nM to 500 μM
Or10a [4] = biological target: T3, Or10a (Drosophila melanogaster, UniProt Q9VYZ1); test: EIS sensor, Or10a nanodiscs on gold electrode (Example 4)
T3 sequence (Q9VYZ1 1-406): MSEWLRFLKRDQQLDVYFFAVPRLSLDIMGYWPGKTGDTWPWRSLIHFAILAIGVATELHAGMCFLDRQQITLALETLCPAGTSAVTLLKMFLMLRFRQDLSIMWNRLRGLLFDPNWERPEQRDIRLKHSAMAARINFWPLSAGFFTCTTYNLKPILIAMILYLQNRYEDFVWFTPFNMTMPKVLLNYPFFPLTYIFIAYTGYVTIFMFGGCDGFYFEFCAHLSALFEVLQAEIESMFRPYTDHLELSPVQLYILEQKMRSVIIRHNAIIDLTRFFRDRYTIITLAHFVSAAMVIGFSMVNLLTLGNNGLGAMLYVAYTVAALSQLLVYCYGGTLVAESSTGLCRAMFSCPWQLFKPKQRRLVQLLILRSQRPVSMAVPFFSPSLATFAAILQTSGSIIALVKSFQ

Or22a [5] = biological target: T1, Or22a; test: EIS sensor, Or22a liposomes on gold electrode, optimized conditions (Example 5)
Or10a [6] = biological target: T3, Or10a; test: EIS sensor, Or10a liposomes on gold electrode, optimized conditions (Example 5)

EIS response to control ligand (OR35a [2]) | EIS response to control ligand (Or22a [5]) | LOD (Or10a [4]; EIS) [fM] | LOD (Or10a [6]; EIS) [pM] | SMILES | EIS response to control ligand (Or22a [1]) | LOD (OR35a [2]; EIS) [fM] | concentration to which the sensor demonstrates a response in real time (OR35a [3]; OR35a nanodisc functionalized CNT FET) [pM] | real time source-drain current response (OR35a [3]) | ΔI/I0 change (OR35a [3]; at 64 pM, OR35a nanodiscs 1:10 dilution) [%] | EC50 (OR35a [3]; present study, Table 4) [nM] | Sensitivity limit (OR35a [3]; present study, Table 4) [pM] | concentration at which clear electronic response starts (OR35a [3]; real time current measurement mode) [fM] | EIS response to control ligand (Or10a [4]) | LOD (Or22a [1]; EIS) [pM] | LOD (Or22a [5]; EIS) [fM] | EIS response to control ligand (Or10a [6])
– | – | – | – | CCC/C=C/C=O [E2-hexenal] | do not respond | < 1 | 64 | immediate large decrease | 10 | ~0.3 | 0.001 | 1 | do not respond | – | – | –
– | – | – | – | CCCCCC(=O)OC [methyl hexanoate] | – | – | – | no clear response | – | – | – | – | – | < 100 | 10 | do not respond
does not respond | do not respond | 10 | 1 | COC(=O)c1ccccc1O [methyl salicylate] | – | – | – | – | – | – | – | – | – | – | – | –
